# Tests used:
# [1] = molecular target: T1, recombinant human TopI (HTopI) (Homo sapiens, UniProt P11387); assay: Gel based plasmid DNA relaxation assay with recombinant TopI (in vitro); assay type: biochemical; details: recombinant human TopI, plasmid DNA relaxation
# T1 sequence (P11387 1-765): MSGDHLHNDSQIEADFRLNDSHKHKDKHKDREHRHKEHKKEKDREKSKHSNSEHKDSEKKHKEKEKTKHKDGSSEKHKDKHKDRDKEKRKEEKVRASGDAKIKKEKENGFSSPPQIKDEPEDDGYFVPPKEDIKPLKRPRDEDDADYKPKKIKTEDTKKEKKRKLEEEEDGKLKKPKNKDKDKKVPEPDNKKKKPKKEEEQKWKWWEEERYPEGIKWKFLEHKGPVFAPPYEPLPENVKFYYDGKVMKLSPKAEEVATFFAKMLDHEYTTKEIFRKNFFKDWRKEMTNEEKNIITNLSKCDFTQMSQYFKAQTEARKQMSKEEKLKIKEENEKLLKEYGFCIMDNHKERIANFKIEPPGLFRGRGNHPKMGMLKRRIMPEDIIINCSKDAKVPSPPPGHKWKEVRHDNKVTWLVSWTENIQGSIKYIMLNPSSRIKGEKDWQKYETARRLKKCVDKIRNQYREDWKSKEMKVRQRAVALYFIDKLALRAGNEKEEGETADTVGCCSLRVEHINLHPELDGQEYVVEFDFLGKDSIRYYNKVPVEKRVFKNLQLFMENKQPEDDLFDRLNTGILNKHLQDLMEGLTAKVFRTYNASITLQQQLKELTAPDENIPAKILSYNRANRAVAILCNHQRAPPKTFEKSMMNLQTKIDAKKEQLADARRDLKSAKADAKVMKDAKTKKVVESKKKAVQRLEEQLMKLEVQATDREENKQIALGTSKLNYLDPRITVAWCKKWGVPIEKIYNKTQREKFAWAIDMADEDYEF
# Experimental: Human ToPI Inhibition in Plasmid DNA Relaxation Assays with Recombinant TopI (In Vitro) or MCF7 Cell Lysates (Ex Vivo)
# Relaxation of supercoiled pBSSK(^+) DNA with recombinant human TopI (HTopI) at a molar ratio of 3:1 at 37° C. for 30 minutes was performed
# [2] = molecular target: T2, human TopI-DNA cleavage complexes (TopIcc) (Homo sapiens, UniProt P11387); assay: Plasmid DNA cleavage assay; assay type: biochemical; details: compared with CPT, FIG. 3 and 4
# T2 sequence (P11387 1-765): T1 sequence (P11387 1-765)
# Experimental: Cleavage reaction and electrophoresis in agarose gel were performed as described in B. Kundu, J. Med. Chem. 2019, 62, 3428-3446. Lane 1 comprises 50 fmol of pBluescript (SK^+) supercoiled DNA. Lanes 2-9 are same as lane 1 but incubated with equal amounts (100 fmol) of HTopI at the indicated concentration of CPT or compound 24 or only DMSO.
# The mechanism of TopI inhibition with compound 24 in the plasmid DNA cleavage assays was investigated.
# [3] = Plasma stability assay; assay type: in vitro ADME; details: pH 7.4, 37° C., 1 μM
smiles,measurement,setting,value
"Nc1ccc(-c2ccc3ncc(-c4nnco4)c(NCCCn4ccnc4)c3c2)cn1 [Compound 24, N-(3-(1H-imidazol-1-yl)propyl)-6-(6-aminopyridin-3-yl)-3-(1,3,4-oxadiazol-2-yl)quinolin-4-amine]",IC50,[1],21 nM
same,stabilisation/trapping of TopI-DNA cleavage complexes (TopIcc),[2],capable of stabilising TopIcc formation like CPT
same,Mean % remaining at 2 hrs in human Plasma,[3],84.18%
